From patent publication US9610371B2, “Anticancer therapy” (STC.UNM, priority 2005, dated 2017)
“Also recorded” adds a separate entry of the source. Read-outs that look alike come from different tables or passages of the source. Positions of bridges follow the written chain, without caps; N, C: chain ends. Non-standard residues stand in square brackets, D forms with d. Residues, ends and D or L forms follow the SMILES beside them.

Columns and labels:
[1] = system: Capan-2 cells; assay: Cell Death Detection ELISA PLUS apoptosis, gemcitabine pre-treated and non-treated Capan-2; assay type: cell-based, human; settings: 72 hours
Protocol: […] Capan-2 cells and non-treated cells were evaluated using CellTiter-Glo® Luminescent Cell Viability Assay (Promega, Madison, Wis.) and Cell Death Detection ELISA^PLUS10× (Roche Applied Sciences, IN) for apoptosis. Cell viability was evaluated at 24 and 48 hours of incubations.

[2] = 25 day toxicology in tumor bearing male Lewis rats; assay type: in vivo, Lewis rat; settings: 25 days; 12.6 MBq ^213Bi-DOTATOC group and DOTATOC control group
Protocol: Toxicology was assessed at 25 days in 4 groups of tumor bearing male Lewis rats (average volume […]). Rats in the first group, Cohort 1, were injected on day 1 only. Rats in second cohort were injected on days 1 and 2, while rats in the third cohort were injected on days 1, 2, and 3. Rats were injected with 2.56 μg, 0.5 μg, 0.5 μg DOTATOC, on day 1, day 2 and day 3, respectively, with a nominal activity of 3.7 MBq. Each dose was divided into 2 injections at 1 hour intervals. The rats received the following cumulative average activities per group: Cohort 1 (N=3) received 4.3±0.7 MBq, Cohort 2 (N=3) received 9.0±0.4 MBq, and Cohort 3 (N=4) received 12.6±0.3 MBq of ^213Bi-DOTATOC. Cohort 4 (N=4) was added as control group and injected twice daily with unlabelled DOTATOC on three consecutive days.
After 24 days, the animals were put into a metabolic cage to collect urine samples for creatinine clearance analysis. Creatine clearance was determined as previously described (20). After 24 hour urine collection, the animals were euthanized with halothane. For blood collection, a cardiac puncture was performed. Blood analysis consisted of hemoglobin (Hgb), hematocrit (Hct), red blood cells (RBC's), and white blood cells (WBC's) with differential, and platelets (Pt's). Additionally T4 and FSH values were assessed using the serum.
Additional groups were then designed to study the effects of the treatment on a somatostatin receptor positive tumor. The first group was designed to study the effects of treatment on large volume tumors (average volume 1720±608 mm^3). This group, Cohort 5 (N=5), received three fractionated doses of ^213Bi-DOTATOC (specific activity 7.4 MBq ^213Bi/1 μG DOTATOC) with a total average cumulative dose of 13.0±0.5 MBq of ^213Bi-DOTATOC. The last cohort, the sixth cohort (N=4), was injected with two fractionated doses, ^213Bi-DOTATOC (specific activity 7.4 MBq ^213Bi/1 μG DOTATOC) with a total average cumulative dose of 22.2±0.7 MBq of ^213Bi-DOTATOC. As described earlier, each dose was divided into 2 injections separated by a 1 hour interval. Tumor response to the treatment was assessed in all cohorts by daily tumor measurements.
Organs were harvested and immediately placed in 10% formalin for a minimum of 48 hours. Following fixation in formalin, bone samples were placed in decalcifying solution for 36 hours. Trimmed organs were sent to the TriCore Laboratories (Albuquerque, N. Mex.) where they were embedded in paraffin, sectioned, and stained with Hematoxylin and Eosin (H and E). Histopathologic evaluation was performed by a board certified veterinary pathologist (DFK) who examined the following organs of each animal: heart, lung, kidneys, testicles, spleen, pancreas, pituitary bone marrow, urinary bladder, adrenals, and two different sections of the liver.
Sections of both the right and left kidneys were examined to determine nephrotoxicity in all cohorts. Bone marrow was examined to evaluate hypoplasia and other lesions in Cohorts 3 and 4. Interstitial nephritis and bone marrow were scored as follows: 0 no lesions, 1 minimal lesions, 2 mild lesions, 3 moderate lesions, and 4 severe lesions.
For the pathology scoring, to evaluate nephrotoxicity on the 6 treatment groups, a frequency analysis was performed in StatXact-5 using the Jonckheere-Terpstra Test. For all other data, graphs and calculations were performed in SigmaStat®-3 and SigmaPlot®-9 as well as Graph Pad Prism®-4 using the t-test. For all statistical tests results were considered significant when p<0.05. Animal biodistribution and tumor volume data are expressed as the average, plus or minus the SEM.

[3] = system: Capan-2 cells; assay: CellTiter-Glo Luminescent Cell Viability Assay, gemcitabine pre-treated and non-treated Capan-2; assay type: cell-based, human
Protocol: Effects of 37 kBq and 370 kBq of ^177Lu labeled DOTATOC and DOTA on gemcitabine pre-treated Capan-2 cells and non-treated cells were evaluated using CellTiter-Glo® Luminescent Cell Viability Assay (Promega, Madison, Wis.) and Cell Death Detection ELISA^PLUS10× (Roche Applied Sciences, IN) for apoptosis. Cell viability was evaluated at 24 and 48 hours of incubations.

[4] = system: Capan-2; assay: Apoptosis in Capan-2 cells, with or without gemcitabine pre-treatment; assay type: cell-based, human; settings: Capan-2, 1 μg/mL, FIG. 7
Description: Alpha emitters such as ^213Bi are known to cause G2M arrest and induce apoptosis in cancer cell lines. Experiments were thus performed to evaluate radiation-induced apoptosis and the radiobiological and radiotherapeutical relevance of this mode of cell death in selection of a radionuclide for therapy.
Activation or down regulation of pro- and anti-apoptotic genes influence cancer cell viability, cancer cell sensitivity to chemotherapy and radiotherapy, and tumor development and progression. A variety of chemotherapeutic agents induce cell death via apoptosis. Gemcitabine is known to induce apoptosis primarily due to Bax overexpression, whereas Bcl-xl is known to reduce gemcitabine-induced apoptosis. In contrast, Capan-2 is […] to Fas-mediated apoptosis. […] The data is expressed as ±S.E.M. of mean apoptosis. […] But when combined with radiolabeled DOTATOC, a synergetic effect on induction of apoptosis is observed.

[5] = system: somatostatin receptor binding sites of Capan-2 cells; assay: Radioligand assay of ^177Lu-DOTATOC binding after gemcitabine pre-treatment; assay type: cell-based, human; settings: 4 days 1 μg/mL pre-treatment and 4 days of replenishment
Protocol: A radioligand assay was performed to evaluate receptor binding by the recognition ligand after pre-treatment of 4 days with 1 μg/mL gemcitabine and 4 days of replenishment.

[6] = biological target: human sst1 (Homo sapiens, UniProt P30872); settings: cited from earlier work
Sequence of human sst1 (P30872 whole entry): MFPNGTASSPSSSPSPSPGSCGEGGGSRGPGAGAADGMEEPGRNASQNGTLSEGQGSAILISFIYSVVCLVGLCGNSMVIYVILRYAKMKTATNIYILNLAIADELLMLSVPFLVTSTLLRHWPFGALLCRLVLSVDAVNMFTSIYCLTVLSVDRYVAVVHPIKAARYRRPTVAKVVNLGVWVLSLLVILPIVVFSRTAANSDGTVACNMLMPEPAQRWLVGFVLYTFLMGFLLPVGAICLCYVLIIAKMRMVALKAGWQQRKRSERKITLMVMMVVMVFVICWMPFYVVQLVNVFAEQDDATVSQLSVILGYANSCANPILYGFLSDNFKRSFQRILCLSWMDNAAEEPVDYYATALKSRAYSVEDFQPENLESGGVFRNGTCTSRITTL

[7] = biological target: human sst4 (Homo sapiens, UniProt P31391); settings: cited from earlier work
Sequence of human sst4 (P31391 whole entry): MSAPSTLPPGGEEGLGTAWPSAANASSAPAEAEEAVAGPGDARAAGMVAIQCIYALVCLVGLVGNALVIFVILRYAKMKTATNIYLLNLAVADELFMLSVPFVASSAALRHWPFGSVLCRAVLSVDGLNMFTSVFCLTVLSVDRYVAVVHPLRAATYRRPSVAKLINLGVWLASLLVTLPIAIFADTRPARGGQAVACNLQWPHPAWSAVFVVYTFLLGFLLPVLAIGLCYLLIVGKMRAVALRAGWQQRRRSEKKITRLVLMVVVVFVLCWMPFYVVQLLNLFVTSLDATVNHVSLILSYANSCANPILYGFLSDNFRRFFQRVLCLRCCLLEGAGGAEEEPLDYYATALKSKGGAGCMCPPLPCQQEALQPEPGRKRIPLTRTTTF

[8] = biological target: human sst2 (Homo sapiens, UniProt P30874); settings: cited from earlier work
Sequence of human sst2 (P30874 whole entry): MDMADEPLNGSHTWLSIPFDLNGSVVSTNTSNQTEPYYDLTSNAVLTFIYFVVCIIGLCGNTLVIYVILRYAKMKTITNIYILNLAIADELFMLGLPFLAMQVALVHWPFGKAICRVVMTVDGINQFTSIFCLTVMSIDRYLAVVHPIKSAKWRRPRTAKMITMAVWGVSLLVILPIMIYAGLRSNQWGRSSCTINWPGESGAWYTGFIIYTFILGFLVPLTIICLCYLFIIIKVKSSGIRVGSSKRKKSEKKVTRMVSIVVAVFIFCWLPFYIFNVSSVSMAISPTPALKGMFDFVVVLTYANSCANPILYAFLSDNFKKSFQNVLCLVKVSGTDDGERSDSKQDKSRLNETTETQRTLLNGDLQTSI

[9] = biological target: human sst3 (Homo sapiens, UniProt P32745); settings: cited from earlier work
Sequence of human sst3 (P32745 whole entry): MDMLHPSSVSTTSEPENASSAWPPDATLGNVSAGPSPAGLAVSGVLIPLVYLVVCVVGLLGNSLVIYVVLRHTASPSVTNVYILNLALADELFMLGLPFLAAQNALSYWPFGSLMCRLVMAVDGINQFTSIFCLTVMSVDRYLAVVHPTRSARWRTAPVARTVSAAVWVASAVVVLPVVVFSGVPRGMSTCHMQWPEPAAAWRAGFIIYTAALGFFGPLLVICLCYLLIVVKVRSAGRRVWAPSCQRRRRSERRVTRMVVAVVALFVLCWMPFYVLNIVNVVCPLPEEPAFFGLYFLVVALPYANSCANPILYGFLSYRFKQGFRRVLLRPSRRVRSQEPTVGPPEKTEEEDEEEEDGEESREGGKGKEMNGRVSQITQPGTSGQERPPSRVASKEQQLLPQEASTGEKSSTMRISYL

[10] = system: human SSTR subtypes (SSTR1-SSTR5); settings: cited from earlier work

Row | Compound | affinity for sst1 [6] | affinity for sst4 [7] | affinity for sst2 [8] | affinity for sst3 [9] | other results
1 | C[C@@H](O)[C@@H]1NC(=O)[C@H](CCCCN)NC(=O)[C@@H](Cc2c[nH]c3ccccc23)NC(=O)[C@H](Cc2ccc(O)cc2)NC(=O)[C@@H](NC(=O)[C@@H](Cc2ccccc2)NC(=O)CN2CCN(CC(=O)O)CCN(CC(=O)O)CCN(CC(=O)O)CC2)CSSC[C@@H](C(=O)N[C@H](CO)[C@@H](C)O)NC1=O [DOTATOC, [DOTA^0, Tyr^3] octreotide] |  |  |  |  | effects on the induction of apoptosis ([1]; without radiolabel): minimal effects; bone marrow analysis (hypoplasia, hyperplasia, lesions) [2]: no lesions; effects on cell viability ([3]; 24 hours, 70 pM and 7 fM, gemcitabine pre-treated and non-treated Capan-2): no significant effects
2 | O=C([O-])CN1CCN(CC(=O)[O-])CCN(CC(=O)[O-])CCN(CC(=O)[O-])CC1.[177Lu+3].[H+] [^177Lu-DOTA] |  |  |  |  | effect on apoptosis, gemcitabine pre-treated vs non-treated Capan-2 [1]: Enhancements of radiation induced apoptosis; effects of radiosensitivity induced by gemcitabine pre-treatment on cell viability ([3]; 24 hours, higher doses (370 kBq)): can be observed; effects of radiosensitivity induced by gemcitabine pre-treatment on cell viability ([3]; 48 hours, 370 kBq as well as 37 kBq): observed
3 | Nc1ccn([C@@H]2O[C@H](CO)[C@@H](O)C2(F)F)c(=O)n1 [gemcitabine, 2′,2′-difluoro-2′-deoxycytidine] |  |  |  |  | induction of apoptosis by itself [4]: does not induce any significant amount of apoptosis; more binding sites than the non-treated Capan-2 cells [5]: ~70%
4 | CC(C)[C@@H]1NC(=O)[C@H](CCCCN)NC(=O)[C@@H](Cc2c[nH]c3ccccc23)NC(=O)[C@H](Cc2ccc(O)cc2)NC(=O)[C@@H](NC(=O)[C@H](N)Cc2ccc3ccccc3c2)CSSC[C@@H](C(=O)N[C@H](C(N)=O)[C@@H](C)O)NC1=O [lanreotide, D-βNal-Cys-Tyr-D-Trp-Lys-Val-Cys-Thr-NH2] | very low affinity | very low affinity | high affinity | moderate affinity; also recorded: lower affinity | affinity for sst4 ([7]; listed as LAN): moderate affinity
5 | C[C@@H](O)[C@@H]1NC(=O)[C@H](CCCCN)NC(=O)[C@@H](Cc2c[nH]c3ccccc23)NC(=O)[C@H](Cc2ccccc2)NC(=O)[C@@H](NC(=O)[C@H](N)Cc2ccccc2)CSSC[C@@H](C(=O)N[C@H](CO)[C@@H](C)O)NC1=O [octreotide, D-Phe-Cys-Phe-D-Trp-Lys-Thr-Cys-Thr-OH] | very low affinity | very low affinity | high affinity | moderate affinity; also recorded: lower affinity | affinity for sst4 ([7]; listed as OCT): little or no affinity
6 | CC(C)[C@@H]1NC(=O)[C@H](CCCCN)NC(=O)[C@@H](Cc2c[nH]c3ccccc23)NC(=O)[C@H](Cc2ccc(O)cc2)NC(=O)[C@@H](NC(=O)[C@H](N)Cc2ccccc2)CSSC[C@@H](C(=O)N[C@@H](Cc2c[nH]c3ccccc23)C(N)=O)NC1=O [vapreotide, D-Phe-Cys-Tyr-D-Trp-Lys-Val-Cys-Trp-NH2] (H-[dF]CY[dW]KVCW-NH2; disulfide 2-7) | very low affinity | moderate affinity | high affinity | moderate affinity | 
7 | SST-24: somatostatin form bound by all 5 human SSTR subtypes; probably a misprint of somatostatin-14 |  |  |  |  | binding to all 5 human SSTR subtypes [10]: high affinity
8 | SST-28: somatostatin variant that is a 28 amino acid peptide |  |  |  |  | binding to all 5 human SSTR subtypes [10]: high affinity
